Holding throughout (assay type): functional, organism-based
One assay concerns Plasmodium vivax. Nature of the assay: Antiplasmodial activity against Plasmodium vivax.
Another assay has as its system Plasmodium malariae. Nature of the assay: Antimalarial activity as inhibition of schizont maturation against Plasmodium malariae Thai after 40 - 70 hrs.
The subject of another assay is Plasmodium falciparum. The assay is described as follows: Antiplasmodial activity against Plasmodium falciparum.

≈ marks a conversion by molar mass, not a printed value.

What is called IC50 is the concentration that inhibits the measured activity by half. High values mean weaker potency, low ones greater potency.

As for `CCN(CC)CCCC(C)Nc1ccnc2cc(Cl)ccc12.Cl` (stereo not given), the half-inhibitory concentration (IC50) in the assay with Plasmodium vivax came out at 0.05 µg/mL; in the assay on Plasmodium malariae it was 0.0749 µg/mL.
For the molecule `CCc1nc(N)nc(N)c1-c1ccc(Cl)cc1` [PYRIMETHAMINE], the half-maximal inhibitory concentration (IC50) stood at 0.008 µg/mL (≈ 0.0322 µM) with Plasmodium vivax, 0.00224 µg/mL (≈ 0.00901 µM) in the assay on Plasmodium malariae and 4.08 µg/mL (≈ 16.4 µM) in the assay with Plasmodium falciparum.

Source of the values: ChEMBL document CHEMBL1152822, “Genetic analysis of the dihydrofolate reductase-thymidylate synthase gene from geographically diverse isolates of Plasmodium malariae” (Antimicrob Agents Chemother, 2007).
